The record followed here is paper PMC7747594, “Protease-activated receptor-2 ligands reveal orthosteric and allosteric mechanisms of receptor inhibition” (Communications Biology, 2020).

In one test the test system is mast cells. The test can be described thus: Immunohistochemistry, histamine release in rat paw. It is filed as in vivo. The following applies: pre-treatment; 30 min. How it is done:
Rat paw tissues were collected, fixed in 10% neutral-buffered formalin (Sigma-Aldrich) for 2 h at 4 °C, transferred into falcon tubes containing 25% sucrose in PBS and left overnight at 4 °C. Tissues were then embedded with Optimal Cutting Temperature compound (OCT, Sakura Finetek, USA) and stored at −80 °C before making cryo-sections for histological analysis. Frozen sections (5 µm) were made using a cryostat-microtome (Leica Biosystems, Germany). For mast cell staining, slides were briefly washed with distilled water before staining with 0.1% toluidine blue (Sigma-Aldrich, pH 2.5) for 3 min. Slides were then dehydrated and mounted in DPX mountant (Sigma-Aldrich, USA). For immunohistochemistry, slides were briefly rinsed with PBS to remove OCT. Except for tryptase staining, antigen retrieval was performed by incubating slides in citrate buffer (0.01 M, pH 6) at 95 °C for 20 min. They were then cooled down briefly and incubated with blocking medium (PBS, 0.1% Triton X-100, 10% horse serum) for 1 h at room temperature in a humidity chamber. Samples were incubated with primary antibody medium (PBS, 0.1% Triton X-100, 4% horse serum; 1:100 primary antibody including – histamine, neutrophil elastase or ED1 antibodies) overnight at 4 °C. […] Tryptase-, neutrophil elastase- and ED1-positive cells were quantified using FIJI/ImageJ 1.42q software, USA.

Test [1] concerns the target T1, hPAR2 (Homo sapiens, UniProt P55085).
T1 sequence (P55085 26-397): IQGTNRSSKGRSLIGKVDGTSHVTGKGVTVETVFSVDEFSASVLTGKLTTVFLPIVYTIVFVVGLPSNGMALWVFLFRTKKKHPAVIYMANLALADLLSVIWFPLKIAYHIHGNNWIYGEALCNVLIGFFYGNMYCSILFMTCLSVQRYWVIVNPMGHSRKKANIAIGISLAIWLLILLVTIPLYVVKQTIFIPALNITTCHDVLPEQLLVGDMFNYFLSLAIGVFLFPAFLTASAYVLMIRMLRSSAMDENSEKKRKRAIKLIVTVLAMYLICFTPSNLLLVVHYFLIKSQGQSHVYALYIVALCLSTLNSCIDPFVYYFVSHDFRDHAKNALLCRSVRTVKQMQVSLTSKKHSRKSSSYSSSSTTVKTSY
The test can be described thus: IP1 HTRF assay, inhibition of SLIGRL-NH2 in 1321N1-hPAR2 cells. It is filed as cell-based. As to the method: Inhibition of PAR2-induced inositol-1-phosphate (IP1) production was measured in 1321N1-hPAR2 cells using IP-One Gq HTRF assay kit (Cisbio). […] Next, EC80 of SLIGRL-NH2 (70 µM) supplemented with 50 mM LiCl was added and incubated for 60 min at 37 °C. Detection of IP1 production was performed according to the manufacturer’s protocol and HTRF was measured using PHERAstar (BMG LabTech). Data were normalised to [IP1] using a standard curve.
(§1) Binding data were analysed using the One site – Fit Ki model in GraphPad Prism 8 (GraphPad Software) to determine binding affinity. Pharmacology in vitro potency data was analysed with a 4-parameter logistic fit using the equation y = Bottom + (Top − Bottom)/[…] where y is the response, x is the 10-logarithm of the drug concentration, Bottom is no response and Top is full response in GraphPad Prism 8 or Genedata Screener (Genedata). pEC50 and pIC50 data are presented as mean ± standard error of the mean (s.e.m.) derived from the number of independent experiments stated. Schild slope analysis was calculated using Graphpad Prism 8 Gaddum/Schild EC50 global fitting (shared model parameters between all data sets) competitive model. […] Schild slope quantifies the shifts in agonist response in the presence of antagonist, a Schild slope of 1 indicates the antagonist is competitive and extra-sum-of-squares F-test (p < 0.05) was used to compare the calculated Schild slope against a hypothetical Schild slope of 1. […] The relative activity was calculated using (EmaxEC50’)/(Emax’EC50) with the Hill slope help constant at 1. EC50’ and Emax’ denote the EC50 and Emax in the absence of allosteric modulator, while EC50 and Emax denote those measured in the presence of allosteric modulator. When the Hill slope = 1, the relative activity plot approaches an asymptote corresponding to the estimate of the γ value.
Background: Time-resolved FRET reads energy transfer from a long-lived donor to a nearby acceptor.

For test [2], the target named is T1, hPAR2. The experiment in a line: Europium-tagged competition binding assay against Eu-tagged-2f-LIGRLO(dtpa)-NH2 on CHO-hPAR2 cells. Set-up: expressed in transfected cells; host or cells: Flp-In CHO. How it is done:
CHO-hPAR2 cells were seeded overnight in 384-well plate at 2.5 × 10^4 cells/well and blocked with 2% BSA for 60 min. […] Cells were washed 3× with PBS supplemented with 20 µM EDTA, 0.01% Tween and 0.2% BSA followed by addition of DELFIA Enhancement Solution (Perkin Elmer) for 90 min. Time-resolved fluorescence was measured with PHERAstar FS reader (BMG Labtech).
as §1

Test [3] addresses T1, hPAR2. The experiment in a line: Ca^2+ flux assay, inhibition of trypsin activation in 1321N1-hPAR2 cells (with 1 µM Vorapaxar). It is filed as cell-based. The note with it: for shape of inhibition of trypsin-induced Ca^2+ mobilisation: 1321N1-hPAR2 cells, 1 µM Vorapaxar.
Setting [4] is: SLIGRL-NH2, 1321N1-hPAR2 cells, mean ± s.e.m., read-out: IP1 (hPAR2) pIC50 (converted).
Setting [5] is: earlier manuscript version quoted by reviewer, read-out: Ki.
Where [6] appears, read: against Eu-tagged-2f-LIGRLO(dtpa)-NH2, CHO-hPAR2 cells, mean ± s.e.m., read-out: Competition Binding (hPAR2) pKi (converted).

Read-outs that look alike come from different tables or passages of the source.

For `C[C@@H](C1CCCCC1)n1c(-c2cc3c(cc2Br)OCO3)nc2cc(C(=O)Nc3ccc(C#N)cc3)ccc21` [AZ3451], the histamine release entry in the test with mast cells is given as “blocked”. Further, the IC50 on hPAR2 [1] (setting [4]) was 22.4 nM; on hPAR2 [3] (trypsin, read-out: inhibition of trypsin activation of PAR2 signalling, biphasic, pIC50 first phase (converted)) it was 3.16 nM; at hPAR2 [3] (trypsin, read-out: inhibition of trypsin activation of PAR2 signalling, biphasic, pIC50 second phase (converted)), 1000 nM. Besides, on hPAR2 [1] (log[compound], M -6.99957, individual data points, read-out: SLIGRL-NH2 IP1 formation, antagonist response, Fig 1d source data), the remaining activity at 0.1001 µM amounted to 15.9%. Besides, the remaining activity at 0.03164 µM on hPAR2 [1] (log[compound], M -7.49976, individual data points, read-out: SLIGRL-NH2 IP1 formation, antagonist response, Fig 1d source data) is 43.6%. The remaining activity at 0.01001 µM at hPAR2 [1] (log[compound], M -7.99957, individual data points, read-out: SLIGRL-NH2 IP1 formation, antagonist response, Fig 1d source data) amounted to 71.9%. For the same compound, the remaining activity at 0.003165 µM at hPAR2 [1] (log[compound], M -8.49963, individual data points, read-out: SLIGRL-NH2 IP1 formation, antagonist response, Fig 1d source data) amounted to 100%. For the same compound, the Kb at hPAR2 [2] (determined with Eu-tagged-2f-LIGRLO(dtpa)-NH2, read-out: equilibrium dissociation constant pKA / pKB (converted)) is 126 nM. For the same compound, the Ki at hPAR2 [2] (setting [5]) turned out to be 120 nM. Besides, the “shape of inhibition of trypsin-induced Ca^2+ mobilisation” value on hPAR2 [3] is “biphasic inhibition curves”. For the same compound, the remaining activity at 0.03 µM at hPAR2 [3] (log[compound], M -7.52288, individual data points, read-out: trypsin Ca^2+ mobilisation, antagonist response, Fig 1g source data) came out at 71.7%. In addition, the remaining activity at 0.01 µM on hPAR2 [3] (log[compound], M -8, individual data points, read-out: trypsin Ca^2+ mobilisation, antagonist response, Fig 1g source data) was determined as 68%. The remaining activity at 0.003 µM on hPAR2 [3] (log[compound], M -8.52288, individual data points, read-out: trypsin Ca^2+ mobilisation, antagonist response, Fig 1g source data) came out at 73%. For the same compound, at hPAR2 [3] (log[compound], M -9, individual data points, read-out: trypsin Ca^2+ mobilisation, antagonist response, Fig 1g source data), the remaining activity at 0.001 µM worked out at 78.8%. In addition, on hPAR2 [3] (log[compound], M -9.52288, individual data points, read-out: trypsin Ca^2+ mobilisation, antagonist response, Fig 1g source data), the remaining activity at 0.0003 µM was found to be 82.9%. On hPAR2 [3] (log[compound], M -10, individual data points, read-out: trypsin Ca^2+ mobilisation, antagonist response, Fig 1g source data), the remaining activity at 0.0001 µM is 99.7%.

For the compound `C[C@@H](C1CCCCC1)n1c(-c2cc3c(cc2Br)OCO3)nc2cc(C(=O)Nc3ccncc3)ccc21` [AZ2623], the IC50 on hPAR2 [1] (setting [4]) was 81.3 nM. Moreover, on hPAR2 [2] (setting [6]), the Ki is 79.4 nM. The “shape of inhibition of trypsin-induced Ca^2+ mobilisation” value at hPAR2 [3] is on record as “biphasic inhibition curves”.

On to `CCCc1cc(F)ccc1C(O)c1ncc[nH]1` (stereo not shown) [AZ8838], for which, in the test with mast cells, the histamine release entry is recorded as “blocked”. In addition, the IC50 against hPAR2 [1] is 1450 nM; on hPAR2 [3] it was 3980 nM. Further, at hPAR2 [1] (read-out: SLIGRL-NH2 IP1 formation, antagonist response, Fig 1d source data, log[compound], M -5.4999, individual data points), the remaining activity at 3.163 µM came out at 40.7%. In addition, the remaining activity at 1 µM at hPAR2 [1] (read-out: SLIGRL-NH2 IP1 formation, antagonist response, Fig 1d source data, log[compound], M -6, individual data points) is 54.4%. Besides, the remaining activity at 0.3164 µM on hPAR2 [1] (read-out: SLIGRL-NH2 IP1 formation, antagonist response, Fig 1d source data, log[compound], M -6.49976, individual data points) is 79.9%. In addition, the remaining activity at 0.03164 µM at hPAR2 [1] (read-out: SLIGRL-NH2 IP1 formation, antagonist response, Fig 1d source data, log[compound], M -7.49976, individual data points) was 108%. The Ki on hPAR2 [2] (setting [6]) is 6310 nM; on hPAR2 [2] (setting [5]), 3600 nM. Further, the “shape of inhibition of trypsin-induced Ca^2+ mobilisation” value on hPAR2 [3] is “sigmoidal and monophasic”. In addition, the remaining activity at 1.318 µM at hPAR2 [3] (read-out: trypsin Ca^2+ mobilisation, antagonist response, Fig 1g source data, log[compound], M -5.88008, individual data points) was determined as 86.9%. For the same compound, at hPAR2 [3] (read-out: trypsin Ca^2+ mobilisation, antagonist response, Fig 1g source data, log[compound], M -6.88008, individual data points), the remaining activity at 0.1318 µM came to 93.7%. On hPAR2 [3] (read-out: trypsin Ca^2+ mobilisation, antagonist response, Fig 1g source data, log[compound], M -7.37997, individual data points), the remaining activity at 0.04169 µM was determined as 93.1%. The remaining activity at 0.01318 µM on hPAR2 [3] (read-out: trypsin Ca^2+ mobilisation, antagonist response, Fig 1g source data, log[compound], M -7.88008, individual data points) was 97.5%.
